Consider seven molecules from patent US7244608B2, “Microorganism producing 5′-inosinic acid and process for producing 5′-inosinic acid using the same” (priority 2000, dated 2007).

The test system of experiment [1] is Corynebacterium ammoniagenes strain CJ112 (ATCC-6872). The experiment can be described thus: Growth on minimal agar medium containing the agent; biochemical properties of parent strain. The experiment is classed as cell-based. The protocol:
(§1) The biochemical properties of representative variants of the novel strain CJIP009 according to the present invention is shown in the following Table 1 (This invention is not limited to the following properties).
(§2) Corynebacterium ammoniagenes strain CJ112 (ATCC-6872), the parent strain, was suspended to 10^7˜10^8 cells/mL in the phosphate buffer (pH 7.0) or citrate buffer (pH 5.5). N-methyl-N′-nitro-N-nitrosoguanidine (NTG) was added to a final concentration of 10˜50 μg/mL at room temperature or 32° C. After 20˜40 minutes, cells were washed twice with 0.85% saline. Colonies were obtained by suitably suspending and spreading cells on a minimal medium (Medium 2) containing 1.7% agar. Then, each colony was tooth picked on to the minimal medium (Medium 2) containing 1.7% agar and on the minimal medium (Medium 2) containing 1.7% agar and […] of lysozyme. First, microorganisms that grew on the minimal medium containing 1.7% agar, but not on the minimal medium containing 40 μg/mL of lysozyme were selected. […] The colony of highly lysozyme sensitive microorganisms was cultivated on a nutrition medium (Medium 1), then cultivated for 24 hours on a seed medium (Medium 3), and cultivated for 3˜4 days on a culture medium (Medium 4) thereby to select LY002 that can produce 5′-inosinic acid accumulated in the culture medium at the largest amounts.

In experiment [2] the test system is Corynebacterium ammoniagenes CJIP009 (KCCM-10226). As to the kind of experiment: Growth on minimal agar medium containing the agent; biochemical properties of mutant CJIP009. The experiment is classed as cell-based. The following applies: strain CJIP009 (KCCM-10226). The procedure: The protocol by which the mutant microorganims of the present invention was isolated began with strain CJ 12 as the parental strain and consisted of several iterations of mutagenesis and screening. In each iteration, microorganisms were treated with X-ray irradiation, ultraviolet ray irradiation, and/or a chemical mutagen, such as N-methyl-N′-nitro-N-nitrosoguanidine (NTG), diethyl sulfate, ethyl amine, etc., and then screened for 5′-inosinic acid production. Treated bacteria were suitably suspended and spread on a minimal medium (Medium 2) containing 1.7% agar and each concentration of variants. Then, each colony was cultivated on a nutrition medium (Medium 1) followed by a seed medium (Medium 3) for 24 hours and a fermentation medium (Medium 4) for […]. Colonies that produced the highest levels of 5′-inosinic acid were selected for subsequent rounds of mutagenesis.
as §1
The mutant of Example 5, strain CITP13, was used as the parent strain for Example 6. CITP13 was suspended to 10^7˜10^8 cells/mL in the phosphate buffer (pH 7.0) or citrate buffer (pH 5.5). NTG mutagenesis was performed as in Example 1. Colonies were obtained by suitably suspending and spreading cells on a 3 minimal media (Medium 2), which contained 1.7% agar and 50 μg/ml, 75 μg/ml, or 100 μg/mL of azaserine, respectively. Then, each colony was cultivated on the nutrition medium (Medium 1), then cultivated for 24 hours on a seed medium (Medium 3), and cultivated for 3–4 days on a culture medium (Medium 4) thereby to select CJIP009 (KCCM-10226) that can produce 5′-inosinic acid accumulated in the culture medium at the largest amounts.

Another experiment relates to CIAC12. The experiment can be described thus: Growth on minimal agar medium containing the agent, strain CIAC12. The experiment is classed as cell-based, Corynebacterium ammoniagenes. The protocol:
The mutant of Example 3, strain CS101, was used as the parent strain for Example 4. CS101 was suspended to 10^7˜10^8 cells/mL in the phosphate buffer (pH 7.0) or citrate buffer (pH 5.5). NTG muta genesis was performed as in Example 1. Colonies were obtained by suitably suspending and spreading cells on a 3 minimal media (Medium 2), which contained 1.7% agar and 10 μg/ml, 20 μg/ml, or 30 μg/mL of L-azetidine-2-carboxylic acid, respectively. Then, each colony was cultivated on the nutrition medium (Medium 1), then cultivated for 24 hours on a seed medium (Medium 3), and cultivated for 3˜4 days on a culture medium (Medium 4), thereby to select CIAC12 that can produce 5′-inosinic acid accumulated in the culture medium at the largest amounts.

A further experiment deals with CISM10. As to the kind of experiment: Growth on minimal agar medium containing the agent, strain CISM10. The experiment is classed as cell-based, Corynebacterium ammoniagenes. The protocol:
The mutant of Example 1, strain LY002, was used as the parent strain for Example 2. LY002 was suspended to 10^7˜10^8 cells/mL in the phosphate buffer (pH 7.0) or citrate buffer (pH 5.5). NTG mutagenesis was performed as in Example 1. Colonies were obtained by suitably suspending and spreading cells on a 3 minimal media (Medium 2), which contained 1.7% agar and 1,000 μg/ml, 1,500 μg/mL or 2,000μg/mL of streptomycin, respectively. Then, each colony was cultivated on the nutrition medium (Medium 1), then cultivated for 24 hours on a seed medium (Medium 3), and cultivated for 3˜4 days on a culture medium (Medium 4) thereby to select CISM10 that can produce 5′-inosinic acid accumulated in the culture medium at the largest amounts.
The mutant of Example 2, strain CISM10, was used as the parent strain for Example 3. CISM10 was suspended to 10^7˜10^8 cells/mL in the phosphate buffer (pH 7.0) or citrate buffer (pH 5.5). NTG mutagenesis was performed as in Example 1. Colonies were obtained by suitably suspending and spreading cells on a 3 minimal media (Medium 2), which contained 1.7% agar and 1,500 μg/ml, 2,500 μg/ml, or 3,500 μg/mL of 3,4-dehydroproline, respectively. Then, each colony was cultivated on the nutrition medium (Medium 1), then cultivated for 24 hours on a seed medium (Medium 3), and cultivated for 3–4 days on a culture medium (Medium 4) thereby to select […] that can produce 5′-inosinic acid accumulated in the culture medium at the largest amounts.

In the next experiment the test system is LY002. The experiment can be described thus: Growth on minimal agar medium containing the agent, strain LY002. The experiment is classed as cell-based, Corynebacterium ammoniagenes. The procedure:
as §2
The mutant of Example 1, strain LY002, was used as the parent strain for Example 2. LY002 was suspended to 10^7˜10^8 cells/mL in the phosphate buffer (pH 7.0) or citrate buffer (pH 5.5). NTG mutagenesis was performed as in Example 1. […]

The next experiment relates to CITP13. The experiment can be described thus: Growth on minimal agar medium containing the agent, strain CITP13. The experiment is classed as cell-based, Corynebacterium ammoniagenes. The procedure: The mutant of Example 4, strain CIAC12, was used as the parent strain for Example 5. CIAC12 was suspended to 10^7˜10^8 cells/mL in the phosphate buffer (pH 7.0) or citrate buffer (pH 5.5). NTG mutagenesis was performed as in Example 1. Colonies were obtained by suitably suspending and spreading cells on a 3 minimal media (Medium 2), which contained 1.7% agar and 20 μg/ml, 50 μg/ml, or 100 μg/mL of L-thiazolidine-4-carboxylic acid, respectively. Then, each colony was cultivated on the nutrition medium (Medium 1), then cultivated for 24 hours on a seed medium (Medium 3), and, cultivated for 3˜4 days on a culture medium (Medium 4) thereby to select CITP13 that can produce 5′-inosinic acid accumulated in the culture medium at the largest amounts.
The mutant of Example 5, strain CITP13, was used as the parent strain for Example 6. CITP13 was suspended to 10^7˜10^8 cells/mL in the phosphate buffer (pH 7.0) or citrate buffer (pH 5.5). NTG mutagenesis was performed as in Example 1. Colonies were obtained by suitably suspending and spreading cells on a 3 minimal media (Medium 2), which contained 1.7% agar and 50 μg/ml, 75 μg/ml, or 100 μg/mL of azaserine, respectively. […]

The next experiment deals with CS101. The experiment can be described thus: Growth on minimal agar medium containing the agent, strain CS101. The experiment is classed as cell-based, Corynebacterium ammoniagenes.
Another experiment deals with the present strain. As to the kind of experiment: Effect of amino acids on synthesis of 5'-inosinic acid by direct fermentation. The experiment is classed as cell-based, Corynebacterium ammoniagenes. The following applies: added to the medium. The text has this:
Accordingly, the present inventors tested the effect of various amino acids on the synthesis of 5′-inosinic acid by direct fermentation. As the result, the inventors determined that the fermentation concentration of 5′-inosinic acid increased upon addition of L-glutamine to the medium. The inventors further determined that the appropriate supply of L-glutamine to the present strain is a rate-limiting step in the synthesis of 5′-inosinic acid.

Turning to `O=C(O)[C@@H]1CCN1` [L-azetidine-2-carboxylic acid], the “Resistance to agent (concentration)” value in experiment [1] (strain ATCC6872) was 5000 µg/mL; in experiment [2] it was 30000 µg/mL. Further, the “Concentration of L-azetidine-2-carboxylic acid at which the microorganism shows resistance” value in the experiment on CIAC12 is 30 mg/mL; in the experiment with CISM10, 5 mg/mL.

For the molecule `[H]/N=C(/N)N[C@H]1[C@H](O)[C@@H](O)[C@H](O[C@@H]2O[C@@H](C)[C@](O)(C=O)[C@H]2O[C@@H]2O[C@@H](CO)[C@H](O)[C@@H](O)[C@@H]2NC)[C@@H](N/C(N)=N\[H])[C@@H]1O` [Streptomycin, streptomycin], the “Resistance to agent (concentration)” value in experiment [1] (strain ATCC6872) was 500 µg/mL; in experiment [2] it was 2,000 μg/ml. Moreover, the “Concentration of streptomycin at which the microorganism shows resistance” value in the experiment with LY002 was 500 µg/mL; in the experiment on CISM10, 2,000 μg/ml.

Regarding `[N-]=[N+]=CC(=O)OC[C@H](N)C(=O)O` [Azaserine], the entries for the “Resistance to agent (concentration)” value in experiment [1] (strain ATCC6872) and in experiment [2] were 25 µg/mL and 100 µg/mL, respectively. Besides, the results for the “Concentration of azaserine at which the microorganism shows resistance” value (in experiment [2]; in the experiment with CITP13) were 100 µg/mL and 25 µg/mL, respectively.

With `O=C(O)[C@@H]1CSCN1` [L-thiazolidine-4-carboxylic acid], the “Concentration of L-thiazolidine-4-carboxylic acid at which the microorganism shows resistance” value is 100 µg/mL in the experiment on CS101 and 10 µg/mL with CISM10. The figures for the “Resistance to agent (concentration)” value in experiment [1] (strain ATCC6872) and in experiment [2] were 10 µg/mL and 100 µg/mL, respectively.

In the case of lysozyme, the results for the “Sensitivity to lysozyme (minimal growth inhibition concentration)” value in experiment [1] (strain ATCC6872) and in experiment [2] were 80 µg/mL and 8 µg/mL, respectively. For the same molecule, the figures for the “Concentration of lysozyme at which the microorganism shows sensitivity” value (in experiment [1] (strain CJ112); with LY002) were 80 µg/mL and 8 µg/mL, respectively.

`O=C(O)C1C=CCN1` (stereo not shown) [3,4-dehydroproline]: the “Concentration of 3,4-dehydroproline at which the microorganism shows resistance” value with CS101 is 3,500 μg/ml; with CISM10, 1,000 μg/ml. In addition, the “Resistance to agent (concentration)” value in experiment [1] (strain ATCC6872) is given as 1,000 μg/ml; in experiment [2] it was 3,500 μg/ml.

With `NC(=O)CC[C@H](N)C(=O)O` [L-glutamine], the “Fermentation concentration of 5'-inosinic acid upon addition to the medium” value in the experiment on the present strain is reported as “increased”.
